Holding throughout (format): functional, cell-based
Assay [1] deals with A549. Kind of assay: Cytotoxicity against human A549 cells after 72 hrs by MTT assay. To be noted: A549, 72 h.
The test system of assay [2] is 786-0. Description: Cytotoxicity against human 786-O cells after 72 hrs by MTT assay. The note with it: 786-0, 72 h. On the technique in general: Formazan colour is commonly taken as a measure of viable cells.
The subject of assay [3] is HepG2. Description: Cytotoxicity against human HepG2 cells after 72 hrs by MTT assay. To be noted: HepG2, 72 h.
For assay [4], the system named is HeLa. Description: Cytotoxicity against human HeLa cells after 72 hrs by MTT assay.

One may read the IC50 as the concentration needed to halve the response being measured. A lower IC50 goes with inhibition by little substance.

Bounds are passed on as bounds.

Take `C[C@@H](C[C@@H](O)[C@H](O)C(C)(C)O)[C@@H]1CC[C@]2(C)C3=CC[C@H]4C(C)(C)C(=O)CC[C@]4(C)[C@H]3CC[C@@]12C`: the IC50 in assay [1], in assay [2], in assay [3] and in assay [4] was over 40 µM throughout.

As to `C=C(C)[C@H](O)[C@H]1C=C([C@@H]2CC=C3[C@]4(C)[C@H](O)C[C@H]5C(C)(C)OC(=O)C=C[C@]5(C)[C@H]4[C@H](OC(=O)/C(C)=C/C)C[C@]32C)C(=O)O1`, the IC50 in assay [1], in assay [2], in assay [3] and in assay [4] was over 40 µM each time.

With `CC(C)(O)[C@@H]1OC[C@H]([C@@H]2CC[C@]3(C)C4=CC[C@H]5C(C)(C)C(=O)CC[C@]5(C)[C@H]4CC[C@@]23C)C[C@H]1O`, the IC50 in assay [1], in assay [2], in assay [3] and in assay [4] was over 40 µM throughout.

For the compound `CC(C)(O)[C@@H]1OC[C@H]([C@@H]2CC[C@]3(C)C4=CC(=O)[C@H]5C(C)(C)C(=O)CC[C@]5(C)[C@H]4CC[C@@]23C)C[C@H]1O`, the IC50 in assay [1], in assay [2], in assay [3] and in assay [4] was over 40 µM each time.

Take `C/C=C(\C)C(=O)O[C@@H]1C[C@]2(C)C(=CC[C@H]2C2=C[C@H]([C@H](O)C(C)(C)OC)OC2=O)[C@]2(C)[C@H](O)C[C@H]3C(C)(C)OC(=O)C=C[C@]3(C)[C@@H]12`: the IC50 in assay [1], in assay [2], in assay [3] and in assay [4] was over 40 µM each time.

In the case of `CC1(C)C(=O)CC[C@]2(C)[C@H]3C[C@@H](O)[C@@H]4[C@@H]([C@]5(C)CCC(=O)O5)CC[C@@]4(C)[C@]3(C)CC[C@@H]12`, the IC50 in assay [1], in assay [2], in assay [3] and in assay [4] was over 40 µM each time.

In the case of `C/C=C(\C)C(=O)O[C@@H]1C[C@]2(C)C(=CC[C@H]2[C@@H]2C[C@H]([C@H](O)C(C)(C)OC)O[C@H]2OC)[C@]2(C)[C@H](O)C[C@H]3C(C)(C)OC(=O)C=C[C@]3(C)[C@@H]12`, the IC50 in assay [1], in assay [2], in assay [3] and in assay [4] was over 40 µM in each case.

Turning to `COC(C)(C)[C@@H](O)[C@H]1C=C([C@@H]2CC(=O)[C@@H]3[C@@]2(C)CC[C@@H]2[C@@]4(C)C=CC(=O)OC(C)(C)[C@@H]4C[C@@H](OC(C)=O)[C@]23C)C(=O)O1`, the concentration for half-maximal inhibition (IC50) in assay [1], in assay [2], in assay [3] and in assay [4] was over 40 µM in each case.

For `COC(=O)CC[C@]1(C)[C@H]2CC[C@@]3(C)[C@H]([C@@H](C)C[C@@H](O)[C@H](O)C(C)(C)O)CC[C@]3(C)C2=CC[C@H]1C(C)(C)O`, the IC50 in assay [1] was 38.6 µM; in assay [2] it was 27.4 µM; in assay [3], 35.5 µM; in assay [4] it was 38.4 µM.

Consider `C/C=C(\C)C(=O)O[C@@H]1C[C@]2(C)C(=CC[C@H]2C2=C[C@H]([C@H](O)C(C)(C)O)OC2=O)[C@]2(C)[C@H](O)C[C@H]3C(C)(C)OC(=O)C=C[C@]3(C)[C@@H]12`, for which the IC50 in assay [1], in assay [2], in assay [3] and in assay [4] was over 40 µM throughout.

As to `C/C=C(\C)C(=O)O[C@@H]1C[C@]2(C)C(=CC[C@H]2C2=CO[C@@H]([C@H](O)C(C)(C)O)C2)[C@]2(C)[C@H](O)C[C@H]3C(C)(C)OC(=O)C=C[C@]3(C)[C@@H]12`, the IC50 in assay [1] worked out at 39.8 µM; in assay [2] it was 34.4 µM; in assay [3] it was 38.8 µM; in assay [4], 33.2 µM.

With `C/C=C(\C)C(=O)O[C@@H]1C[C@]2(C)C(=CC[C@H]2[C@@H]2C[C@H]([C@H](O)C(C)(C)OC)O[C@@H]2OC)[C@]2(C)[C@H](O)C[C@H]3C(C)(C)OC(=O)C=C[C@]3(C)[C@@H]12`, the IC50 is 12.5 µM in assay [1], 8.2 µM in assay [2], 38.8 µM in assay [3] and 38.4 µM in assay [4].

In the case of `CC1(C)C(=O)CC[C@]2(C)[C@H]3CC[C@@H]4[C@@H]([C@]5(C)CCC(=O)O5)CC[C@@]4(C)[C@]3(C)CC[C@@H]12` [CABRALELACTONE], the IC50 in assay [1], in assay [2], in assay [3] and in assay [4] was over 40 µM throughout.

For the compound `COc1cc2c(c(OC)c1OC)-c1ccc(OC)c(=O)cc1[C@@H](NC(C)=O)CC2` [COLCHICINE], the IC50 was determined as 0.043 µM in assay [1], 0.022 µM in assay [2] and 0.078 µM in assay [3].

The values are drawn from ChEMBL document CHEMBL4196150, “Structurally Diverse Highly Oxygenated Triterpenoids from the Roots of Ailanthus altissima and Their Cytotoxicity” (J Nat Prod, 2018).
